The record followed here is a melting point compilation (Tetko et al.; mined from patent text by program, amines drawn as free bases though some values may be those of a salt).

One may read the melting point as the temperature, or range, at which the solid turns liquid. Turning to `COCCNC(=O)C1CCC(Nc2ncc3ncnc(Nc4ccc(F)c(Cl)c4)c3n2)CC1` (centres undefined), the melting point fell in the range of 243 to 246 °C.

In turn, `c1cncc(C2CCCCC2)c1` showed a melting point of 78 to 80 °C.

On to `Cn1nc(-c2ncc(Cl)cc2F)c([N+](=O)[O-])c1OC(F)F`, for which the melting point fell in the range of 108 to 109 °C.

The compound `Nc1cccc(Cc2n[nH]c(=O)c3ccccc23)c1` showed a melting point of 175 to 177 °C.

The compound `COC(=O)c1ccc2c(c1C)SCCC2(C)C` came in with a melting point of 63 °C.

In turn, `ClCc1cccc2c(-c3ccc(Br)cc3)nccc12` showed a melting point of 116 to 118 °C.

In the case of `Cc1nc2c3c(c(C(=O)NCC(C)O)cc2n1C)CCC1(Cc2ccccc2C1)N3` (centres undefined), the melting point was 224 to 225 °C.

In turn, `CN1Cc2c(-c3noc(CNC4CC4)n3)ncn2-c2ccc(F)cc2C1=O` had a melting point of 176 to 178 °C.

`CCCCCCCCCCCCCCCCC[C@@H](C[C@@H]1OC(=O)[C@H]1CC)OC(=O)[C@H](CC(C)C)NC(=O)OCc1ccccc1` came in with a melting point of 44 to 47 °C.

Take `O=S(=O)(c1ccccc1)c1n[nH]c2ccccc12`: the melting point was found to be 118 °C.

Compound `Cc1cc(N2CCN(CC(=O)c3ccccc3)C2=O)sc1C(=O)NCc1cccnc1` yielded a melting point of 174 to 176 °C.

As for `CC(C)n1nc(-c2sc(NC(=O)c3ccc(CNCCO)cc3)nc2-c2ccccc2)ccc1=O`, the melting point was in the range of 111 to 113 °C.

`CN(CCC=C1c2ccccc2C=Cc2ccccc21)CCC(=O)O` had a melting point of 119 to 120 °C.

Consider `O=C(CCCc1ccc(Cl)cc1)c1ccc(OCc2ccc3ccccc3n2)cc1`, for which the melting point was in the range of 140 to 142 °C.

For `COc1ccc(COC2C=C(C)C(=NN(C)C)CC(C)(C)C2OC)cc1` (centres undefined), the melting point was 71 to 72 °C.

The compound `CN1c2ccc(C#CCOC3CCCCO3)cc2C(=O)CS1(=O)=O` (centres undefined) yielded a melting point of 107 to 108 °C.

Turning to `OCCn1cnc2c(Cl)nc3ccccc3c21`, the melting point is 185 to 187 °C.

`CSC(=NC(=O)OC(C)(C)C)NNC(=O)NC(=O)OCc1ccccc1`: the melting point fell in the range of 120 to 123 °C.

In turn, `COC(=O)C(Oc1cc(OCc2ccsc2)cc(F)c1C#N)c1ccccc1Cl` (racemic) gave a melting point of 143 to 144 °C.

Turning to `CCN(CC)C(=O)c1cc(OC)cc(OC)c1-c1ccccc1`, the melting point was 117 to 118 °C.

`CN1C(=S)N(c2ccc(C#N)c(C(F)(F)F)c2)C(=O)C1(C)C` had a melting point of 171 °C.

For the compound `O=C1OCc2c(-c3noc(C4CC4)n3)ncn2-c2ccccc21`, the melting point lay in the range of 206 to 209 °C.

`CNC(=O)c1ccc2c(c1)c(-c1cc3cccnc3[nH]1)cn2C` had a melting point of 186 °C.

Turning to `CN(C)c1cccc(OCC(=O)c2cccc(Cl)c2)c1`, the melting point lay within 101 to 103 °C.

For `NS(=O)(=O)c1cc(C(=O)O)cc(S)c1Cl`, the melting point lay within 263 to 264 °C.

`BrCc1ccc2ccccc2n1` came in with a melting point of 33 to 37 °C.

Compound `CC(c1ccc(-c2ccc(F)cc2)cc1)N1CCN(CCO)CC1` (centres undefined) displayed a melting point of 120 to 123 °C.

For `CON=C(c1ccccc1COc1cc(C)ccc1C)C1OCCO1`, the melting point was in the range of 136 to 137 °C.

`CC(C)(C)OC(=O)Nc1cc([N+](=O)[O-])c2ncccc2c1` registered a melting point of 134 to 135 °C.

With `CCCCCCCCCCCCCCCCOCC(CO)COC(C)=O` (centres undefined), the melting point was found to be 33 °C.

`CC1(N)CN(c2cc3c(cc2F)c(=O)c(C(=O)O)cn3C2CC2)C1`: the melting point fell in the range of 293 to 295 °C.

`CCCCOc1cc(-c2cc3ccccc3[nH]2)ccc1OCC` showed a melting point of 139 °C.

As for `CCC12C=C(C(=O)OC)n3c4c(c5ccccc53)CCN(CCC1)C42` (centres undefined), the melting point lay in the range of 160 to 162 °C.

On to `CCC(=O)c1cc2c(s1)CCCN(CCCCCl)C2=O`, for which the melting point lay within 91 to 92 °C.

For `N#Cc1cn(COC(CO)CO)c2ncnc(N)c12`, the melting point was determined as 195 °C.

For `O=C(O)Cc1ccc(C(=O)O)cc1`, the melting point is 235 to 237 °C.

In turn, `CC(=O)c1ccc(Br)cn1` showed a melting point of 112 °C.

Regarding `O=C1C=C(c2c(-c3ccccc3)nn3ccccc23)CCN1`, the melting point is 188 to 189 °C.

As to `CCCC12COC(c3ccc(Cl)cc3)(CC1=O)OC2`, the melting point was 96 °C.

`CCOC(=O)c1c(O)c(O)c(C(=O)OCC)n1Cc1ccccc1` had a melting point of 144 to 145 °C.

Turning to `Cc1cc(CCCCCOc2ccc(-c3nc4ccccc4s3)cc2)on1`, the melting point fell in the range of 70.5 to 71.2 °C.

Compound `CCCCCCCCCCCCn1nnnc1CCC(=O)OC` had a melting point of 43 to 45 °C.

For `COCCOCOc1c(C(C)(C)C)cc(-c2nc(N)n[nH]2)cc1C(C)(C)C`, the melting point lay in the range of 233 to 235 °C.

In turn, `O=C(Nc1ccccc1)C1=C(N2CCOCC2)COC1=O` came in with a melting point of 205 to 206 °C.

`Cc1cc(-c2ccc(C(F)(F)F)nc2)cc(-c2cccc(-c3cccc(S(N)(=O)=O)c3)n2)n1` yielded a melting point of 233 to 234 °C.

For `OC1CSC(Oc2ccc(-c3ccc(OC(F)(F)F)cc3)nc2)C(O)C1O` (centres undefined), the melting point fell in the range of 184 to 186 °C.

Consider `CCCCCCCCCCCC(=O)OC[C@H]1OCC(=NOCc2ccccc2)[C@@H](O)[C@@H]1O`, for which the melting point was 45 to 50 °C.

`COC(=O)c1cc(C#CC(C)(C)O)cnc1C1=NC(C)(C(C)C)C(=O)N1` (centres undefined) displayed a melting point of 142 to 145 °C.

Compound `CCOC(=O)Cc1cc(CC)c(C(=O)c2ccc(Cl)cc2)n1C` had a melting point of 73 to 75 °C.

With `CC(=O)C(=NNc1ccccc1)C(=O)Nc1ccccc1`, the melting point lay within 96 to 97 °C.

Take `O=C1C(c2ccccc2)=C(c2ccccc2)C(=O)N1CCc1ccc(F)cc1`: the melting point was 153 to 154 °C.

Consider `CC(C)(C)OC(=O)c1nn(-c2ccc(Cl)cc2Cl)c(-c2ccc(Cl)cc2)c1CC#N`, for which the melting point is 168 °C.

Regarding `CCC(CC)c1ccc(Cl)c2nc3n(c12)CCCCN3c1ccc(N(C)C)cc1OC(F)(F)F`, the melting point is 158 to 159 °C.

In turn, `CCCCCCCCc1c(N)nc(-n2cncn2)nc1CC` had a melting point of 90 to 91 °C.

`O=C(CCc1ccc2cc(F)ccc2n1)NO` gave a melting point of 208 to 210 °C.

For the compound `CC(=O)Nc1ccc(S(F)(F)(F)(F)F)cc1`, the melting point was 131 to 132 °C.

Take `O=C(OCc1ccccc1)N1CCc2c(sc3nc(CN4C(=O)CCC4=O)c(Cl)c(-c4ccc(C(F)(F)F)cc4)c23)C1`: the melting point was in the range of 201 to 202 °C.

`CN(C=O)CNC(=O)c1snc(Cl)c1Cl`: the melting point was in the range of 87 to 88 °C.

In turn, `O=C(Nc1ccc2c(c1)CCN(C(=O)Nc1ccc(OCC(O)CO)cc1Cl)C2)Nc1ccccc1F` (centres undefined) displayed a melting point of 164 to 167 °C.

In the case of `CN1C(=O)CC[C@]2(C)c3ccc(-c4cc(F)c([N+](=O)[O-])cc4F)cc3CC[C@@H]12`, the melting point fell in the range of 130 to 140 °C.

In turn, `Cc1cn(C2OC(C)(CO)C(O)C2F)c(=O)[nH]c1=O` (centres undefined) gave a melting point of 80 °C.

The compound `CC(=O)N(C)c1ccc(-c2cc3ccc(Br)cn3c2)cc1C` gave a melting point of 197 to 198 °C.

`COc1cn(-c2ccc(N3CCN(C)C3=O)cc2F)nc(-c2ccnn2-c2ccccc2)c1=O` had a melting point of 208 to 209 °C.

As for `Cc1ccc(CNC(=O)c2ccc(F)cc2OCC(=O)O)cc1[N+](=O)[O-]`, the melting point was in the range of 159 to 160 °C.
